Source: PubChem BioAssay (NCI)
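Interpolation was linear, between the two tested concentrations surrounding the appropriate level; five concentrations were tested over 48 hours in 96-well plates. Definition used: TGI = concentration required for complete inhibition of growth.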

Experiments:
Assay in all cases: NCI tumour cell line growth inhibition, 48 h
[1] = system: LOX IMVI melanoma
[2] = system: HOP-62 NSCLC
[3] = system: 786-0 renal
[4] = system: NCI-H460 lung
[5] = system: NCI-H23 lung
[6] = system: OVCAR-5 ovarian
[7] = system: HS 578T breast
[8] = system: NCI-H226 lung
[9] = system: UO-31 renal
[10] = system: OVCAR-4 ovarian
[11] = system: NCI-H522 lung
[12] = system: SK-MEL-5 melanoma
[13] = system: SK-OV-3 ovarian
[14] = system: K-562 leukemia
[15] = system: HCC-2998 colon
[16] = system: HCT-116 colon
[17] = system: M14 melanoma
[18] = system: SF-539 CNS
[19] = system: BT-549 breast
[20] = system: T-47D breast
[21] = system: MCF7 breast
[22] = system: U251 CNS
[23] = system: UACC-62 melanoma
[24] = system: DU-145 prostate
[25] = system: A549 NSCLC
[26] = system: HT29 colon
[27] = system: SK-MEL-28 melanoma
[28] = system: OVCAR-8 ovarian
[29] = system: HCT-15 colon
[30] = system: KM12 colon
[31] = system: SR leukemia
[32] = system: SN12C renal
[33] = system: OVCAR-3 ovarian
[34] = system: RXF 393 renal
[35] = system: HOP-92 NSCLC
[36] = system: EKVX NSCLC
[37] = system: SK-MEL-2 melanoma
[38] = system: TK-10 renal
[39] = system: SNB-75 CNS
[40] = system: MDA-MB-231 breast
[41] = system: SF-295 CNS
[42] = system: SW-620 colon
[43] = system: PC-3 prostate
[44] = system: COLO 205 colon
[45] = system: ACHN renal
[46] = system: CCRF-CEM leukemia
[47] = system: UACC-257 melanoma
[48] = system: MDA-MB-435
[49] = system: A498 renal
[50] = system: SF-268 CNS
[51] = system: SNB-19 CNS
[52] = system: CAKI-1 renal
[53] = system: NCI/ADR-RES ovarian
[54] = system: IGROV1 ovarian
[55] = system: MALME-3M melanoma
[56] = system: HL-60(TB) leukemia

`O=C1/C(=C/c2cccc(O)c2)COc2ccccc21` was tested, and the TGI [1] was 3.92 µM, the TGI [2] was 28.4 µM and the TGI [3] was 14.5 µM. The TGI [4] was 54.6 µM, the TGI [5] was 18.1 µM and the TGI [6] was 26.6 µM. It also gave a TGI [7] of 43.6 µM, a TGI [8] of 32.4 µM and a TGI [9] of 24.8 µM. The TGI [10] was 21.8 µM, the TGI [11] was 5.82 µM and the TGI [12] was 22.8 µM. The TGI [13] was 46.3 µM, the TGI [14] was > 33.2 µM and the TGI [15] was 1.48 µM. The TGI [16] was 3.32 µM, the TGI [17] was 13 µM and the TGI [18] was 25.8 µM. The TGI [19] was 49.5 µM, the TGI [20] was 21.1 µM and the TGI [21] was > 43.6 µM. For the same compound, the TGI [22] was 3.8 µM, the TGI [23] was 9.81 µM and the TGI [24] was 28.1 µM. For the same compound, the TGI [25] was 47.2 µM, the TGI [26] was 11.4 µM and the TGI [27] was 11.9 µM. The TGI [28] was 24.4 µM, the TGI [29] was 3.26 µM and the TGI [30] was 7.09 µM. For the same compound, the TGI [31] was > 100 µM, the TGI [32] was 19.8 µM and the TGI [33] was 4.85 µM. For the same compound, the TGI [34] was 29 µM, the TGI [35] was > 55.6 µM and the TGI [36] was 34 µM. For the same compound, the TGI [37] was 34.6 µM, the TGI [38] was 31.2 µM and the TGI [39] was 34.5 µM. The TGI [40] was 21.4 µM, the TGI [41] was 33.4 µM and the TGI [42] was 6.79 µM. For the same compound, the TGI [43] was > 53.8 µM, the TGI [44] was 31.6 µM and the TGI [45] was 3.89 µM. For the same compound, the TGI [46] was > 100 µM, the TGI [47] was 7.29 µM and the TGI [48] was 17.2 µM. The TGI [49] was 34.7 µM, the TGI [50] was 40.8 µM and the TGI [51] was 21.8 µM. The TGI [52] was 11.9 µM, the TGI [53] was 5.25 µM and the TGI [54] was 23.1 µM. It also gave a TGI [55] of 26.3 µM and a TGI [56] of 63.8 µM.
